Reference: patent publication US6127380A, “4-aminoalkoxy-1H-benzoimidazoles” (American Home Products Corporation, priority 1998, dated 2000)
Like-named read-outs stand apart in the source and are kept apart here.

How the values were obtained:
[1] = target: T1, dopamine autoreceptor (D2) (Rattus norvegicus, UniProt P61169); assay: Affinity for the dopamine autoreceptor, 3H-quinpirole binding in homogenized rat striatal brain tissue (D2 Quin.)
T1 construct: homogenized rat striatal brain tissue; from tissue; host or cells: rat striatum, homogenate
T1 sequence (P61169 whole entry): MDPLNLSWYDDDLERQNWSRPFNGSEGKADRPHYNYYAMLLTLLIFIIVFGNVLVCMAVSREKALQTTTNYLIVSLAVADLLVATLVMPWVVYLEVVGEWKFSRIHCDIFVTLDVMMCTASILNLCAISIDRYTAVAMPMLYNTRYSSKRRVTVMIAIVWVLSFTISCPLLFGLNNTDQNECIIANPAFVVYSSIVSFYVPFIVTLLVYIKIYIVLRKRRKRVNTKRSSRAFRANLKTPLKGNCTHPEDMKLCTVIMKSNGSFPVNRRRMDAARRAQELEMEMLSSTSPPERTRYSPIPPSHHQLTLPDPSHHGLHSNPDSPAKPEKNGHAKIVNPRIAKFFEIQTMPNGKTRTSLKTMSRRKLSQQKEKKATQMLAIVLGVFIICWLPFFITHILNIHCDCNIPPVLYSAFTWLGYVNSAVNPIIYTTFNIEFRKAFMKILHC
Protocol: Affinity for the dopamine autoreceptor was established by a modification of the standard experimental test procedure of Seemen and Schaus, European Journal of Pharmacology 203: 105-109, 1991, wherein homogenized rat striatal brain tissue is incubated with ^3 H-quinpirole (Quin.) and various concentrations of test compound, filtered and washed and counted in a Betaplate scintillation counter.

dopamine D-2 receptor = target: T2, dopamine D-2 receptor (Rattus norvegicus, UniProt P61169); assay: Affinity for the dopamine D-2 receptor, 3H-spiroperidol binding in homogenized limbic brain tissue (D2 Spiper); details: for Ratio: IC50 D2 Spiper / IC50 D2 Quin. (LowAg/HighAg, predicts intrinsic activity)
T2 construct: from tissue; host or cells: limbic brain tissue, homogenate
T2 sequence (P61169 whole entry): as above
Protocol: High affinity for the dopamine D-2 receptor was established by the standard experimental test procedure of Fields, et al., Brain Res., 136, 578 (1977) and Yamamura et al., eds., Neurotransmitter Receptor Binding, Raven Press, N.Y. (1978) wherein homogenized limbic brain tissue is incubated with ^3 H-spiroperidol (Spiper.) and various concentrations of test compound, filtered and washed and shaken with Hydrofluor scintillation cocktail (National Diagnostics) and counted in a Packard 460 CD scintillation counter.

[2] = 3H-quinpirole, homogenized rat striatal brain tissue, read-out: IC50 (nM) D2 Quin.
[3] = 3H-spiroperidol, homogenized limbic brain tissue, read-out: IC50 (nM) D2 Spiper

Row | SMILES | IC50 [1, 2] | IC50 (dopamine D-2 receptor; [3]) | Ratio (dopamine D-2 receptor) | IC50 (dopamine D-2 receptor) | IC50 [1]
1 | c1ccc(CNCCOc2cccc3nc[nH]c23)cc1 [Example 1, [2-(1H-Benzoimidazol-4-yloxy)-ethyl]-benzyl-amine] | 26.7 nM |  |  |  | 
2 | Cc1nc2c(OCCNCc3ccccc3)cccc2[nH]1 [Example 2, Benzyl-[2-(2-methyl-1H-benzoimidazol-4-yloxy)-ethyl]-amine] | 8.85 nM | 339 nM | 38.3 |  | 
3 | Cc1ccc(CNCCOc2cccc3[nH]c(Cc4ccccc4)nc23)cc1 [Example 5, [2-(2-Benzyl-1H-benzoimidazol-4-yloxy)-ethyl]-(4-methyl-benzyl)-amine] | 54.8 nM | 2160 nM | 39.4 |  | 
4 | FC(F)(F)c1nc2c(OCCCNCc3ccccc3)cccc2[nH]1 [Example 8, Benzyl-[3-(2-trifluoromethyl-1H-benzoimidazol-4-yloxy)-propyl]-amine] | 86.8 nM | 1460 nM | 16.8 |  | 
5 | c1csc(CNCCOc2cccc3[nH]cnc23)c1 [Example 11, Thiophen-2-ylmethyl-[2-(1H-benzoimidazol-4-yloxy)-ethyl]-amine] | 52.8 nM |  |  |  | 
6 | Cc1ccc(CNCCOc2cccc3[nH]c(C(F)(F)C(F)(F)C(F)(F)F)nc23)cc1 [Example 12, (4-Methyl-benzyl)-{2-[2-(1,1,2,2,3,3,3-heptafluoro-propyl)-1H-benzoimidazol-4-yloxy]-ethyl}-amine] |  |  | 23.0 | 118 nM | 5.12 nM
7 | FC(F)(F)c1nc2c(OCCN3CCc4ccccc4C3)cccc2[nH]1 [Example 13] | 8 nM | 314 nM | 39.4 |  | 
8 | FC(F)(F)c1nc2c(OCCNCc3ccc(Cl)cc3)cc(Cl)cc2[nH]1 [Example 15, 4-Chloro-benzyl-[2-(6-chloro-2-trifluoromethyl-1H-benzoimidazol-4-yloxy)-ethyl]-amine] | 7.77 nM | 395 nM | 50.8 |  | 

Continued by falling IC50 [1, 2], values first:

Row | IC50 [1, 2] | IC50 (dopamine D-2 receptor; [3]) | Ratio (dopamine D-2 receptor) | SMILES | IC50 (dopamine D-2 receptor) | IC50 [1]
9 | 1.44 nM | 66.5 nM | 46.2 | Cc1ccc(CNCCOc2cccc3[nH]c(C(F)(F)C(F)(F)F)nc23)cc1 [Example 6, (4-Methyl-benzyl)-{2-[2-(1,1,2,2,2-pentafluoro-ethyl)-1H-benzoimidazol-4-yloxy]-ethyl}-amine] |  | 
10 | 1.42 nM | 151 nM | 106 | FC(F)(F)c1nc2c(OCCNCc3ccccc3)cc(Cl)cc2[nH]1 [Example 14, Benzyl-[2-(6-chloro-2-trifluoromethyl-1H-benzoimidazol-4-yloxy)-ethyl]-amine] |  | 
11 | 1.41 nM | 41.9 nM | 29.7 | FC(F)(F)C(F)(F)c1nc2c(OCCNCc3ccccc3)cccc2[nH]1 [Example 9, Benzyl-{2-[2-(1,1,2,2,2-pentafluoro-ethyl)-1H-benzoimidazol-4-yloxy]-ethyl}-amine] |  | 
12 | 1.16 nM | 87 nM | 75.0 | FC(F)(F)c1ccc(CNCCOc2cccc3[nH]c(C(F)(F)F)nc23)cc1 [Example 17, [2-(2-Trifluoromethyl-1H-benzoimidazol-4-yloxy)-ethyl]-(4-trifluoromethyl-benzyl)-amine] |  | 
13 | 1.03 nM | 37.4 nM | 36.3 | FC(F)(F)c1nc2c(OCCNCc3cccs3)cccc2[nH]1 [Example 7, Thiophen-2-ylmethyl-[2-(2-trifluoromethyl-1H-benzoimidazol-4-yloxy)-ethyl]-amine] |  | 
14 | 0.86 nM | 81.5 nM | 94.8 | FC(F)(F)c1nc2c(OCCNCc3cccc4ccccc34)cccc2[nH]1 [Example 10, Naphthalen-1-ylmethyl-[2-(2-trifluoromethyl-1H-benzoimidazol-4-yloxy]-ethyl]-amine] |  | 
15 | 0.74 nM | 29.9 nM | 40.4 | Cc1ccc(CNCCOc2cccc3[nH]c(C(F)(F)F)nc23)cc1 [Example 4, (4-Methyl-benzyl)-[2-(2-trifluoromethyl-1H-benzoimidazol-4-yloxy)-ethyl]-amine] |  | 
16 | 0.74 nM | 49 nM | 66.2 | Fc1ccc(CNCCOc2cccc3[nH]c(C(F)(F)F)nc23)cc1 [Example 16, (4-Fluoro-benzyl)-2[2-(2-trifluoromethyl-1H-benzoimidazol-4-yloxy)-ethyl]-amine] |  | 
17 | 0.56 nM |  |  | FC(F)(F)c1nc2c(OCCNCCCc3ccccc3)cccc2[nH]1 [Example 18, (3-Phenyl-propyl)-[2-(2-trifluoromethyl-1H-benzoimidazol-4-yloxy)-ethyl]-amine] |  | 
18 | 0.36 nM | 23.7 nM | 65.8 | FC(F)(F)c1nc2c(OCCNCc3ccccc3)cccc2[nH]1 [Example 3, Benzyl-[2-(2-trifluoromethyl-1H-benzoimidazol-4-yloxy)-ethyl]-amine] |  | 
